Our source for the IC50 values is US20250059214A1, “AMIDE-CONTAINING LONP1 INHIBITOR COMPOUNDS, USES AND METHODS” (Pretzel Therapeutics, Inc., priority 2021, published 2025).

Chain of LONP1 (NM_004793.4) (P36776 68-959): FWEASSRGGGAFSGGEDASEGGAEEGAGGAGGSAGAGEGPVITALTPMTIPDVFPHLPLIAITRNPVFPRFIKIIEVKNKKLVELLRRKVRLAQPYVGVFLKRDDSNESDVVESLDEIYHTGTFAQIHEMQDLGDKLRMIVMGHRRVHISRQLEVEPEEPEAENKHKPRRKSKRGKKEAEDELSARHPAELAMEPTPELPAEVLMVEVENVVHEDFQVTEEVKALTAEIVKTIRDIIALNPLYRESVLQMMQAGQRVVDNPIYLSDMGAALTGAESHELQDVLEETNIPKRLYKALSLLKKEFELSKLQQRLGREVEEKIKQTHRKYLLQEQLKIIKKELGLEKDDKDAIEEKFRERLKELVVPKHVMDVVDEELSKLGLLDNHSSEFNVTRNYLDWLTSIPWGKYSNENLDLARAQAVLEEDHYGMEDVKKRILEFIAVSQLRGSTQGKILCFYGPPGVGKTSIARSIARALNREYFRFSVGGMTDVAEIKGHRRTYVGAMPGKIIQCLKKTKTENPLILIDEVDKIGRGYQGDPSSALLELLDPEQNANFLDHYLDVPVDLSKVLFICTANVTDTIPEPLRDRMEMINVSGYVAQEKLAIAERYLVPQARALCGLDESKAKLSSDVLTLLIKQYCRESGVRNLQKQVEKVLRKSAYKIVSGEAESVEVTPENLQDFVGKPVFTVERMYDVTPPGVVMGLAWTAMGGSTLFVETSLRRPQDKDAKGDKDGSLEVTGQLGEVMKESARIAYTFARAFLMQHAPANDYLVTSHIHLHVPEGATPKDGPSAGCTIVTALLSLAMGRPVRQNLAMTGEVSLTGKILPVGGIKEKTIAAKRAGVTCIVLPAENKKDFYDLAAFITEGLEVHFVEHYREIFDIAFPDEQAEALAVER

For the assay, the target named is LONP1 (NM_004793.4) (Homo sapiens (Human), UniProt P36776). Briefly: FRET-based assay for LONP1 protease activity using fluorogenic peptide substrate. Format: biochemical. Conditions: LONP1 15 nM as monomer, substrate 3 μM, 1 hour at 37° C., 15 min pre-incubation with compound; average of a minimum of two repeats. As for the experimental part:
Inhibition of LONP1 protease activity by an inhibitor compound of the disclosure elicits a decrease in the fluorescent signal.
The LONP1-containing mix (10 μL) was incubated with the test compound for 15 min at 37° C. before adding the peptide-containing mix (5 μL). Solutions were dispensed using a small cassette-Multidrop Combi (Thermo Scientific).
Each value is based on an average of a minimum of two repeats.
What is called IC50 is the concentration that gives 50% inhibition. As to `O=C(N[C@@H](CCCc1ccccc1)B(O)O)[C@@H](CC(=O)N1CCOCC1)NS(=O)(=O)c1cnccn1` [Compound 39, ((R)-1-((R)-4-morpholino-4-oxo-2-(pyrazine-2-sulfonamido)butanamido)-4-phenylbutyl)boronic acid], the IC50 was 50 to 500 nM.
With `CNC(=O)N[C@H](CC(=O)N1CCOCC1)C(=O)N[C@@H](CCCc1ccccc1)B(O)O` [Compound 43, ((R)-1-((R)-2-(3-methylureido)-4-morpholino-4-oxobutanamido)-4-phenylbutyl)boronic acid] the figure was 50 to 500 nM; with `O=C(N[C@@H](CCCc1ccccc1)B(O)O)[C@@H](CC(=O)N1CCOCC1)NCCc1ccccc1` [Compound 40, ((R)-1-((R)-4-morpholino-4-oxo-2-(phenethylamino)butanamido)-4-phenylbutyl)boronic acid], 50 to 500 nM; with `O=C(N[C@H](CC(=O)N1CCOCC1)C(=O)N[C@@H](CCc1ccccc1)B(O)O)c1cnccn1` [Compound 4, ((R)-1-((R)-4-morpholino-4-oxo-2-(pyrazine-2-carboxamido)butanamido)-3-phenylpropyl)boronic acid], 50 to 500 nM.
The value for `CCC[C@H](NC(=O)[C@@H](CC(=O)N1CCOCC1)NC(=O)c1cnccn1)B(O)O` [Compound 18, ((R)-1-((R)-4-morpholino-4-oxo-2-(pyrazine-2-carboxamido)butanamido)butyl)boronic acid] was 50 to 500 nM; that for `CC(C)C[C@H](NC(=O)[C@@H](CC(=O)N1CCOCC1)NC(=O)c1cnccn1)B(O)O` [Compound 3, ((R)-3-methyl-1-((R)-4-morpholino-4-oxo-2-(pyrazine-2-carboxamido)butanamido)butyl)boronic acid] was 50 to 500 nM.
The value for `O=C(N[C@@H](CCCc1ccccc1)B(O)O)[C@@H](CC(=O)N1CCOCC1)NS(=O)(=O)c1cccc(Cl)c1` [Compound 29, ((R)-1-((R)-2-((3-chlorophenyl)sulfonamido)-4-morpholino-4-oxobutanamido)-4-phenylbutyl)boronic acid] was under 50 nM.
`O=C(N[C@H](CC(=O)N1CCOCC1)C(=O)N[C@@H](CCCc1ccccc1)B(O)O)C1CCCCC1` [Compound 22, ((R)-1-((R)-2-(cyclohexanecarboxamido)-4-morpholino-4-oxobutanamido)-4-phenylbutyl)boronic acid]: the IC50 is under 50 nM.
With `O=C(N[C@@H](CCCc1ccccc1)B(O)O)[C@@H](CC(=O)N1CCOCC1)NCc1ccccc1` [Compound 31] the figure was 50 to 500 nM.
With `CC(C)NC(=O)N[C@H](CC(=O)N1CCOCC1)C(=O)N[C@@H](CCCc1ccccc1)B(O)O` [Compound 38, ((R)-1-((R)-2-(3-isopropylureido)-4-morpholino-4-oxobutanamido)-4-phenylbutyl)boronic acid] the figure was 50 to 500 nM.
The value for `O=C(N[C@H](CC(=O)N1CCOCC1)C(=O)N[C@@H](CCCc1ccccc1)B(O)O)O[C@H]1CCOC1` [Compound 32, ((R)-1-((R)-4-morpholino-4-oxo-2-(((((S)tetrahydrofuran-3-yl)oxy)carbonyl)amino)butanamido)-4-phenylbutyl)boronic acid] was under 50 nM; that for `O=C(N[C@H](CC(=O)N1CCOCC1)C(=O)N[C@@H](CCCc1ccccc1)B(O)O)C1CCOCC1` [Compound 23, ((R)-1-((R)-4-morpholino-4-oxo-2-(tetrahydro-2H-pyran-4-carboxamido)butanamido)-4-phenylbutyl)boronic acid] was under 50 nM.
On to `O=C(N[C@@H](CCCc1ccccc1)B(O)O)[C@@H](CC(=O)N1CCOCC1)NC(=O)N1CC[C@@H](O)C1` [Compound 44, ((R)-1-((R)-2-((R)-3-hydroxypyrrolidine-1-carboxamido)-4-morpholino-4-oxobutanamido)-4-phenylbutyl)boronic acid], for which the IC50 lay in the range of 50 to 500 nM.
The value for `CC[C@H](NC(=O)[C@@H](CC(=O)N1CCOCC1)NC(=O)c1cnccn1)B(O)O` [Compound 19, ((R)-1-((R)-4-morpholino-4-oxo-2-(pyrazine-2-carboxamido)butanamido)propyl)boronic acid] was 50 to 500 nM; that for `O=C(N[C@@H](CCCc1ccccc1)B(O)O)[C@@H](CC(=O)N1CCOCC1)NC(=O)N1CCCC1` [Compound 42, ((R)-1-((R)-4-morpholino-4-oxo-2-(pyrrolidine-1-carboxamido)butanamido)-4-phenylbutyl)boronic acid] was 50 to 500 nM; that for `O=C(N[C@H](CC(=O)N1CCOCC1)C(=O)N[C@@H](Cc1ccccc1)B(O)O)c1cnccn1` [Compound 28, ((R)-1-((R)-4-morpholino-4-oxo-2-(pyrazine-2-carboxamido)butanamido)-2-phenylethyl) boronic acid] was 500 to 5000 nM.
In the case of `CCCC[C@H](NC(=O)[C@@H](CC(=O)N1CCOCC1)NC(=O)c1cnccn1)B(O)O` [Compound 5, ((R)-1-((R)-4-morpholino-4-oxo-2-(pyrazine-2-carboxamido)butanamido)pentyl)boronic acid], the half-maximal inhibitory concentration (IC50) was in the range of 50 to 500 nM.
With `O=C(N[C@@H](CCCc1ccccc1)B(O)O)[C@@H](CC(=O)N1CCOCC1)Nc1ccccc1` [Compound 46], the IC50 lay within 50 to 500 nM.
With `O=C(N[C@@H](CCCc1ccccc1)B(O)O)[C@@H](CC(=O)N1CCOCC1)NS(=O)(=O)c1ccccc1Cl` [Compound 30, ((R)-1-((R)-2-((2-chlorophenyl)sulfonamido)-4-morpholino-4-oxobutanamido)-4-phenylbutyl)boronic acid] the figure was 50 to 500 nM; with `O=C(N[C@H](CC(=O)N1CCOCC1)C(=O)N[C@@H](CCCc1ccccc1)B(O)O)O[C@@H]1CCOC1` [Compound 36, ((R)-1-((R)-4-morpholino-4-oxo-2-(((((R)-tetrahydrofuran-3-yl)oxy)carbonyl)amino)butanamido)-4-phenylbutyl)boronic acid], under 50 nM.
In the case of `O=C(N[C@@H](CCCc1ccccc1)B(O)O)[C@@H](CC(=O)N1CCOCC1)NS(=O)(=O)c1cc(Cl)ccc1Cl` [Compound 37, ((R)-1-((R)-2-((2,5-dichlorophenyl)sulfonamido)-4-morpholino-4-oxobutanamido)-4-phenylbutyl)boronic acid], the IC50 is under 50 nM.
With `O=C(N[C@@H](CCCc1ccccc1)B(O)O)[C@@H](CC(=O)N1CCOCC1)NC(=O)N1CC[C@H](O)C1` [Compound 45, ((R)-1-((R)-2-((S)-3-hydroxypyrrolidine-1-carboxamido)-4-morpholino-4-oxobutanamido)-4-phenylbutyl)boronic acid] the figure was 50 to 500 nM.
In the case of `CC(C)(C)OC(=O)N(CCc1ccccc1)[C@H](CC(=O)N1CCOCC1)C(=O)N[C@@H](CCCc1ccccc1)B(O)O` [Compound 41, ((R)-1-((R)-2-((tert-butoxycarbonyl)(phenethyl)amino)-4-morpholino-4-oxobutanamido)-4-phenylbutyl)boronic acid], the IC50 fell in the range of 500 to 5000 nM.
As for `O=C(N[C@H](CC(=O)N1CCOCC1)C(=O)N[C@@H](CCCc1ccccc1)B(O)O)c1cc(Cl)ccc1Cl` [Compound 35, ((R)-1-((R)-2-(2,5-dichlorobenzamido)-4-morpholino-4-oxobutanamido)-4-phenylbutyl)boronic acid], the IC50 is under 50 nM.
Regarding `Cc1nc(C)c(C(=O)N[C@H](CC(=O)N2CCOCC2)C(=O)N[C@@H](CC(C)C)B(O)O)o1` [Compound 6, ((R)-1-((R)-2-(2,4-dimethyloxazole-5-carboxamido)-4-morpholino-4-oxobutanamido)-3-methylbutyl)boronic acid], the IC50 fell in the range of 50 to 500 nM.
With `O=C(N[C@@H](CCCc1ccccc1)B(O)O)[C@H](CC(=O)N1CCOCC1)NS(=O)(=O)c1ccccc1` [Compound 33, ((R)-1-((S)-4-morpholino-4-oxo-2-(phenylsulfonamido)butanamido)-4-phenylbutyl)boronic acid] the figure was under 50 nM; with `O=C(N[C@H](CC(=O)N1CCOCC1)C(=O)N[C@@H](CCCc1ccccc1)B(O)O)[C@@H]1CCCCO1` [Compound 49, ((R)-1-((R)-4-morpholino-4-oxo-2-((S)-tetrahydro-2H-pyran-2-carboxamido)butanamido)-4-phenylbutyl)boronic acid], 50 to 500 nM.
The value for `O=C(N[C@H](CC(=O)N1CCOCC1)C(=O)N[C@H]1CCOB1O)c1cnccn1` [Compound 47, N—((R)-1-(((R)-2-hydroxy-1,2-oxaborolan-3-yl)amino)-4-morpholino-1,4-dioxobutan-2-yl)pyrazine-2-carboxamide] was over 5000 nM; that for `O=C(N[C@@H](CCCc1ccccc1)B(O)O)[C@@H](CC(=O)N1CCOCC1)NC(=O)[C@H]1CCCCO1` [Compound 48, ((R)-1-((R)-4-morpholino-4-oxo-2-((R)-tetrahydro-2H-pyran-2-carboxamido)butanamido)-4-phenylbutyl)boronic acid] was 50 to 500 nM; that for `CN(C)C(=O)N[C@H](CC(=O)N1CCOCC1)C(=O)N[C@@H](CCCc1ccccc1)B(O)O` [Compound 20] was 50 to 500 nM.
In the case of `CC(=O)N[C@H](CC(=O)N1CCOCC1)C(=O)N[C@@H](CCCc1ccccc1)B(O)O` [Compound 11], the IC50 lay within 50 to 500 nM.
The value for `CC(C)(C)OC(=O)N(Cc1ccccc1)[C@H](CC(=O)N1CCOCC1)C(=O)N[C@@H](CCCc1ccccc1)B(O)O` [Compound 34, ((R)-1-((R)-2-(benzyl(tert-butoxycarbonyl)amino)-4-morpholino-4-oxobutanamido)-4-phenylbutyl)boronic acid] was 500 to 5000 nM.
